{"source": "paper PMC5929447", "about": "(Oncotarget, 2018)", "key": {"BFL-1": {"biological_target": "T1, BFL-1 (Homo sapiens, UniProt Q16548)", "T1 sequence (Q16548 1-175)": "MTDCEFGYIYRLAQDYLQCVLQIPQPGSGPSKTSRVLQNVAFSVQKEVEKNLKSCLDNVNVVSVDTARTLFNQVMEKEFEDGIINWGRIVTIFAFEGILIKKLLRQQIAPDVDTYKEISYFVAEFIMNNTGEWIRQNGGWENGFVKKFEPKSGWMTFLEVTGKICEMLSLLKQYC", "experiment": "Fluorescence polarization (FP) with Fluorescein-PUMA, BFL-1", "method": "Final concentrations of MCL-1, BFL-1, BCL-2 and BCL-XL proteins were 10, 10, 10 and 20 nM respectively. The assay plates were incubated for 2 hours at room temperature and the FP was measured on a Synergy 2 reader (Ex. 528 nm, Em. 640 nm, Cut-off 510 nm). The binding of increasing doses of compound was expressed as a percentage reduction in mP compared to the window established between ‘DMSO only’ and ‘total inhibition’ control (30 μM PUMA). […] The KI was subsequently calculated as previously described [42]."}, "MCL-1": {"biological_target": "MCL-1 (Homo sapiens, UniProt Q07820)", "sequence (Q07820 whole entry)": "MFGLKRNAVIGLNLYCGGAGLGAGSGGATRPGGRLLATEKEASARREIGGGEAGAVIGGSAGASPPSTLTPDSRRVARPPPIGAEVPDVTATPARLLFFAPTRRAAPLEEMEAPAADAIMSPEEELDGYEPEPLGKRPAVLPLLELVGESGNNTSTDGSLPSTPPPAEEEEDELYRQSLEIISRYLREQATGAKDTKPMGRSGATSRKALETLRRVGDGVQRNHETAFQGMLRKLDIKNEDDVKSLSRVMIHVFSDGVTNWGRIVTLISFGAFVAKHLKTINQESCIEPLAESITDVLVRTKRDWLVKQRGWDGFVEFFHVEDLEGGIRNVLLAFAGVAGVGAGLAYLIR", "experiment": "Fluorescence polarization (FP) with Fluorescein-PUMA, MCL-1", "assay_type": "binding"}, "[1]": {"test_system": "isolated platelets from healthy volunteers", "experiment": "Apoptosis (annexin V) in isolated platelets", "assay_type": "cell-based", "details": "Homo sapiens, Platelet; 4 healthy donors, 3 h; read-out: EC50 apoptosis (PS+) in isolated platelets", "experimental": "Peripheral blood samples from CLL patients were obtained with informed patient consent and local ethical committee approval (UHL-09723). […] Interphase fluorescence in situ hybridization (FISH) was performed for detection of 17p13 deletion. Mantle cell lymphoma (MCL) primary cells were obtained after informed consent from MCL patients treated at the department of clinical hematology from the University Hospital of Nantes, France. Peripheral MCL cells from blood or pleural effusion, were purified after Ficoll-Hypaque separation with immuno-magnetic anti-CD19 beads (Miltenyi, Paris, France). Primary cells were cultured in RPMI-1640 supplemented with 10% FCS and 2 mM glutamine. Human platelets were isolated from citrate blood donated by healthy volunteers. Washed platelets were cultured in Hepes-buffered saline (HBS, 10 mM Hepes, 150 mM NaCl, 5 mM KCl, 1 mM MgSO4, pH 7.4).\nEC50 values were calculated using GraphPadPrism (non-linear fit, sigmoidal dose response, variable slope). […] Cell death was assessed in the CD19+ primary MCL cells by annexinV-FITC staining combined with an analysis of altered cellular morphology (lower FCS). Fluorescence was analyzed on FACSCalibur."}, "RS4;11 cell line": {"test_system": "RS4;11 cell line", "experiment": "CellTiter-Glo cell viability, RS4;11", "assay_type": "cell-based", "details": "Homo sapiens, 72 h of treatment", "experimental": "Cells were seeded into 96-well plates and treated at 8 points with 1:2 serial dilution of compounds. Cell viability was assessed and assayed for viability using CellTiter-Glo reagent (Promega) following the manufacturer's instructions. Plates were read using Tecan luminescence plate reader. Results were normalized to the viability of cells without compounds (control wells). The IC50 values were calculated using nonlinear regression algorithms in XCell software."}, "platelets": {"test_system": "platelets", "experiment": "Platelet counts in RS4;11-bearing mice", "assay_type": "in vivo", "details": "25 and 100 mg/kg single oral dose, 16 h post dosing", "experimental": "When tumors reached approximately 200 mm^3 for efficacy studies or 300 mm^3 for pharmacodynamic studies, mice were randomized. […] Mice were treated via oral gavage at 10 ml/kg with the doses and schedules described in the figure.\nFor pharmacodynamic studies, blood and tumors were removed 16 h post dosing and immediately snap-frozen. Total proteins were extracted from the tumors and caspase-3 activity was assessed in triplicate using CaspACE® Assay System (Promega). Platelet cell counts were determined 16 hours post dosing using Coulter AcT diff (Beckman)."}, "[2]": {"test_system": "BCL-2-dependent FL5.12 cells", "experiment": "Apoptosis (annexin V/PI) in FL5.12 cells expressing BCL-2 upon IL-3 withdrawal", "assay_type": "cell-based, murine", "details": "24 h upon IL-3 withdrawal"}, "BCL-2/BAX complex [3]": {"biological_target": "T2, BCL-2/BAX complex (Homo sapiens, UniProt P10415)", "T2 sequence (P10415 whole entry, one chain of several)": "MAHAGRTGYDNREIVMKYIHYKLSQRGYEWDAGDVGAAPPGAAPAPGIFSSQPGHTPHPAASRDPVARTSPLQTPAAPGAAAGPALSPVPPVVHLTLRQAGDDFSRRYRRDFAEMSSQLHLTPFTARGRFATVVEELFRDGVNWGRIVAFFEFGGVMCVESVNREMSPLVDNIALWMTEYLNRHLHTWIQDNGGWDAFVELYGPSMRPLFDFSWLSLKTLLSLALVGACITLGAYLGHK", "experiment": "Co-immunoprecipitation in BCL-2-overexpressing HeLa cells", "assay_type": "cell-based", "details": "2 h"}, "BCL-2/BAX complex [4]": {"biological_target": "T2, BCL-2/BAX complex", "experiment": "Co-immunoprecipitation in RS4;11 cells", "assay_type": "cell-based", "details": "2 h, increasing concentrations"}, "RS4;11 xenograft": {"test_system": "RS4;11 xenograft", "experiment": "RS4;11 xenograft efficacy", "assay_type": "in vivo, mice", "details": "for Mean TV change: day 17, mean ± s.e.m.; for % T/C: day 17 post treatment start", "experimental": "Experiments were performed in SCID/beige female mice from Charles River Laboratories, Massachusetts, USA. Animals, approximately 7-8 weeks of age at the start of the treatment were allowed to acclimate in animal facility with access to food and water ad libitum for 3 days prior to manipulation. Animals were handled in accordance with IACUC regulations and guidelines for experiments performed in the USA and with European and French regulation for the protection of vertebrate animals for experiments performed in France. Animal well-being and behavior, including grooming and ambulation were monitored at least once a day. General health of mice was monitored and mortality recorded daily. Any moribund animals were sacrificed. RS4;11 Acute Lymphoblastic Leukemia cell lines was obtained from ATCC. Toledo (Diffuse Large B-Cell Lymphoma) human cell lines were obtained internally through Bioresources and the Novartis-Cancer Cell Line Encyclopedia. Cells were free of Mycoplasma and murine viral contamination in the IMPACT VIII PCR assay panel ([…] laboratories INC, Westbrook, ME, USA). […] Cells were resuspended in a 1:1 mixture of cold DPBS (Dulbecco's Phosphate-Buffered Saline) and Matrigel^TM (Becton-Dickinson #354234) at a concentration of 3 × 10^7 cells/ml for Toledo cells, and of 1 × 10^7 cells/ml for RS4;11 cells. […] Body weights were recorded and tumors were measured with digital calipers twice to three times a week. Tumor volume was calculated using the formula: length × width^2/2. Percent changes in body weights was calculated as (BWcurrent - BWinitial)/(BWinitial) × 100. Data is presented as percent body weight change from the day of treatment initiation. When tumors reached approximately 200 mm^3 for efficacy studies or 300 mm^3 for pharmacodynamic studies, mice were randomized. […] Mice were treated via oral gavage at 10 ml/kg with the doses and schedules described in the figure. […] Regression = 100 × ΔT/Tinitial if ΔT < 0 where: T = mean tumor burden of the drug-treated group on the final day of the study; ΔT = mean tumor burden of the drug-treated group on the final day of the study - mean tumor burden of the drug-treated group on initial day of dosing; Tinitial = mean tumor burden of the drug-treated group on initial day of dosing; C = mean tumor burden of the control group on the final day of the study; and ΔC = mean tumor burden of the control group on the final day of the study - mean tumor burden of the control group on initial day of dosing. If the tumor volume was less than 14 mm^3 for more than 3 consecutive measurements, animals were considered in complete regression (CR)."}, "[5]": {"experiment": "Body weight in Toledo-bearing mice", "assay_type": "in vivo", "details": "doses up to 300 mg/kg, oral five times a week for 3 weeks", "experimental": "For each experiment, female SCID/beige mice were implanted subcutaneously (right axillary region) with 3 × 10^6 Toledo or RS4;11 (1 × 10^6 cells for efficacy studies and 1 × 10^7 cells for pharmacodynamics studies) suspended in 1:1 mixture of cold DPBS and Matrigel™ in a total volume of 100 μl. Body weights were recorded and tumors were measured with digital calipers twice to three times a week. Tumor volume was calculated using the formula: length × width^2/2. Percent changes in body weights was calculated as (BWcurrent - BWinitial)/(BWinitial) × 100. Data is presented as percent body weight change from the day of treatment initiation."}, "[6]": {"details": "100 mg/kg oral daily for 7 days"}}, "note": "pEC50, pIC50: −log10 of the molar value. Several values for one entry are separate records, joined by “and”; a condition that tells them apart may be missing. Identical values can stand only once."}
{"smiles": "O=C(c1cc(-c2cc3c(cc2C(=O)N2Cc4ccccc4C[C@H]2CN2CCOCC2)OCO3)n2c1CCCC2)N(c1ccccc1)c1ccc(O)cc1", "note": "[S55746]", "values": [{"measurement": "binding to BFL-1", "setting": "BFL-1; FP", "result": "No significant binding"}, {"measurement": "FP_BFL-1, % of inhibition at the maximal tested concentration", "setting": "BFL-1; at 5E-06 M", "result": 7.4, "unit": "%@5E-06"}, {"measurement": "binding to MCL-1", "setting": "MCL-1; FP", "result": "No significant binding"}, {"measurement": "FP_MCL-1, % of inhibition at the maximal tested concentration", "setting": "MCL-1; at 30E-06 M", "result": "4.3% and 4.5%"}, {"measurement": "pEC50", "setting": "[1]", "result": "< 5.52"}, {"measurement": "pIC50", "setting": "RS4;11 cell line", "result": 7.15}, {"measurement": "platelet counts in vivo", "setting": "platelets", "result": "did not induce platelet loss"}, {"measurement": "apoptosis induction (PS+ cells) in BCL-2-dependent FL5.12 cells", "setting": "[2]", "result": "strongly induce apoptosis"}, {"measurement": "effect on BCL-2/BAX complex in BCL-2-overexpressing HeLa cells", "setting": "BCL-2/BAX complex [3]", "result": "affects BCL-2/BAX complex"}, {"measurement": "disruption of the BCL-2/BAX complex in RS4;11 cells", "setting": "BCL-2/BAX complex [4]", "result": "concentration-dependent disruption of the BCL-2/BAX complex"}, {"measurement": "Mean TV change", "setting": "RS4;11 xenograft; 25 mg/kg oral daily for 7 days", "result": "782.38 ± 107.32", "unit": "mm3"}, {"measurement": "% T/C", "setting": "RS4;11 xenograft; 25 mg/kg oral daily for 7 days", "result": 67.1, "unit": "% T/C"}, {"measurement": "Mean TV change", "setting": "RS4;11 xenograft; 50 mg/kg oral daily for 7 days", "result": "190.50 ± 76.72", "unit": "mm3"}, {"measurement": "% T/C", "setting": "RS4;11 xenograft; 50 mg/kg oral daily for 7 days", "result": 16.3, "unit": "% T/C"}, {"measurement": "complete regression", "setting": "RS4;11 xenograft; [6]", "result": "complete regression observed in all animals"}, {"measurement": "Mean TV change", "setting": "RS4;11 xenograft; [6]", "result": "–98.13 ± 11.62 mm3"}, {"measurement": "body weight compared to the vehicle control group", "setting": "[5]", "result": "did not significantly differ"}]}
